# Experimental data published in paper PMC6530213, “Monitoring flux in signalling pathways through measurements of 4EBP1-mediated eIF4F complex assembly” (BMC Biology, 2019).
# What was measured:
# [1] = tested on: eIF4E:eIF4G^604–646 complex; test: NanoBit eIF4E:eIF4G^604–646 protein complementation assay in HEK293 cells; type: cell-based; settings: for Extent of disruption of NanoBit signal / eIF4F complex: HEK293, relative to eIF4G YLL-LgBit binding control or maximal dose of Torin
# Experimental: (§1) Opaque 96-well plates were seeded with 20,000 HEK293 cells per well in DMEM and 10% FCS. Transfections in 96-well plate format were performed using FUGENE6 (Roche) with 100 ng of the indicated plasmid vectors per well as outlined in the manufacturer’s instructions (Fig. 1). Twenty-four hours after transfection, the medium was replaced with 100 μl of Opti-MEM I cell media containing 0% FCS with no added red phenol (Thermo Fisher Scientific) and luminescence activity assayed (as outlined in “NanoBit and cell viability experiments” section). Transfections utilising 4EBP1 constructs were performed with either 50 ng of the indicated construct or empty vector.
# (§2) Twenty-four hours prior to transfection, cells (HEK293, PANC-1 or PC-3) were seeded at a cell density of 800,000 cells per well of a six-well plate (Thermo Fisher Scientific). Transfections in six-well plates were performed using Lipofectamine 3000 (Thermo Fisher Scientific) with 3 μg of the indicated plasmid vectors per well according to the manufacturer’s instructions. For knockdown experiment, siRNA Ctrl or 4EBP1 at a final concentration of 100 nM were included in the transfection mixture. Transfections utilising GFP and GFP-MYC contained 1 μg of each vector or empty vector, respectively. In the case of transfections utilising any of the 4EBP1 constructs described, only 0.5 μg of each vector or empty vector was used, respectively. After a 24- or 48-h (as indicated in the figure legends) incubation period, the medium was removed and cells were washed with PBS saline. Cells were then either lysed directly for immunoprecipitation experiments or were trypsinised and re-suspended in Opti-MEM media with 0% FCS to perform NanoBit and cell viability experiments in a 96-well format.
# (§3) Either HEK293, PC-3 or PANC-1 cells were spun down at 1000 rpm for 5 min at room temperature. Supernatant was then discarded, and cells re-suspended to a density of to 220,000 cells per millilitre in Opti-MEM I cell media containing 0% FBS with no added red phenol. Then 90 μl of the cell re-suspension was added to the wells of a white opaque 96-well plate. Compounds were then titrated onto the 96-well plate using a suitable twofold dilution series from a 10× stock solution containing 10% v/v DMSO. Control wells were also treated with a 10% DMSO only stock solution to yield a final residual DMSO concentration of 1% v/v. The 96-well plates were then incubated for 4 h at 37 °C, with 5% CO2. Wells were then treated with a solution of Nano-Glo live substrate, which was prepared as per the manufacturer’s instructions. The plates were then shaken for 1 min at 22 °C and luminescence assessed after additional 50 min using an Envision Multi-Plate reader (Perkin-Elmer). Plates were then multiplexed with CellTiter-GLO 2.0 reagent (PROMEGA) and cellular viability determined according to the manufacturer’s instruction. NanoBit titration data was used to determine IC50 values for drug potency by fitting 4 parameter logistic curves using GraphPad Prism 7.0.
# HEK293 cells = test: Cell viability by intracellular ATP (CellTiter-GLO) in HEK293 cells; type: cell-based; settings: HEK293, 4-h treatment
# Experimental: as §3
# [2] = tested on: eIF4E:eIF4G^604–646 complex; test: NanoBit eIF4E:eIF4G^604–646 protein complementation assay in PANC-1 cells; type: cell-based
# Experimental: as §2
# as §3, with “Wells were then treated with a solution of Nano-Glo live substrate, which was prepared as per the manufacturer’s instructions.” left out, “NanoBit titration data was used to determine IC50 values for drug potency by fitting 4 parameter logistic curves using GraphPad Prism 7.0.” left out
# [3] = tested on: eIF4E:eIF4G^604–646 complex; test: NanoBit eIF4E:eIF4G^604–646 protein complementation assay in PC-3 cells; type: cell-based; settings: for Activity in NanoBit system: PC-3 cells, 4 h
# Experimental: as §2, §3
# [4] = tested on: eIF4E S209 phosphorylation; test: AlphaScreen Surefire eIF4E S209 phosphorylation assay in PANC-1 cells; type: cell-based
# Experimental: (§4) Ninety-six-well plates were seeded at 30,000 cells per well with non-transfected PC-3, PANC-1 or HKEK293 cells in DMEM with 10% FCS and incubated overnight. Cells were then washed with PBS and the media replaced with OPTI-MEM containing no serum. Cells were then treated with the indicated compounds. Controls were performed with DMSO vehicle treatments. Four hours post treatments, cells were lysed with 50 μl of passive lysis buffer (PerkinElmer) for 15 min and 10 μl of lysate from each well was transferred into a white bottom 384-well plate. GAPDH and pS209 eIF4E levels were assessed according to the manufacturer’s instructions (PerkinElmer) for each sample. Luminescence was measured using an Envision Multiplate reader (PerkinElmer).
# [5] = tested on: eIF4E S209 phosphorylation; test: AlphaScreen Surefire eIF4E S209 phosphorylation assay in PC-3 cells; type: cell-based; settings: PC3 cells, 4E-BP1 protein levels high, normalised to GAPDH, read-out: pEIF4E SureFire (IC50)
# Experimental: as §4
# PC-3 cells = test: Cell viability by intracellular ATP (CellTiter-GLO) in PC-3 cells; type: cell-based; settings: NanoBit co-transfected PC-3 cells, 4 h
# Experimental: as §3
# [6] = tested on: full-length NanoLuc luciferase; test: Full-length NanoLuc luciferase counter-screen in HEK293 cells; type: cell-based; settings: HEK293 transfected with full-length NanoLuc
# eIF4E-eIF4G interface = settings: published value; read-out: in vitro Kd; cited from earlier work
# [7] = biological target: T1, eIF4E:eIF4G^604–646 complex (Homo sapiens, UniProt P06730); test: NanoBit eIF4E:eIF4G^604–646 protein complementation assay in HEK293 cells; type: cell-based; settings: HEK293, 4 h, normalised to DMSO and to full-length NanoLuc counter-screen; read-out: IC50, NanoBit eIF4E:eIF4G^604–646 signal
# T1 construct: linked either to full-length eIF4E or the eIF4G^604–646 fragment; expressed in transfected cells; host or cells: HEK293
# Experimental: as §1, §2, §3
# [8] = HEK293, 4 h treatment, read-out: IC50, NanoBit eIF4E:eIF4G^604–646 signal
# T1 sequence (P06730 2-217, one chain of several): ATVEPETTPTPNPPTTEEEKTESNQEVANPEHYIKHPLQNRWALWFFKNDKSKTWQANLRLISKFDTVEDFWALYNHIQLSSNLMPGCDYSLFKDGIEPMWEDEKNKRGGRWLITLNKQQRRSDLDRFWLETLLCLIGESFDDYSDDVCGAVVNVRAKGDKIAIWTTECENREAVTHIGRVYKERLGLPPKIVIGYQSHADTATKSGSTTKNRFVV
structure (smiles),measurement,setting,value
CO[C@H]1C[C@@H]2CC[C@@H](C)[C@@](O)(O2)C(=O)C(=O)N2CCCC[C@H]2C(=O)O[C@H]([C@H](C)C[C@@H]2CC[C@@H](O)[C@H](OC)C2)CC(=O)[C@H](C)/C=C(\C)[C@@H](O)[C@@H](OC)C(=O)[C@H](C)C[C@H](C)/C=C/C=C/C=C/1C [Rapamycin],IC50,[1]; [8],6.88 ± 0.88 µM
same,Effect on cell viability (intracellular ATP),HEK293 cells,"neither Rapamycin, Torin nor PP242 affected the cells adversely"
Nc1ncnc2n[nH]c(Nc3ccc(F)cc3)c12 [CGP57380],Effect on NanoBit luminescence signal in combination with Ipasertib versus Ipasertib alone,"[1]; HEK293, CGP57380 at constant concentrations, 4 h",did not lead to a larger decrease of the luminescence signal
same,"NanoBit eIF4E:4G (IC50, μM)",[2]; 4E-BP1 protein levels low,No Inhibition
same,"NanoBit eIF4E:4G (IC50, μM)","[3]; PC3 cells, 4E-BP1 protein levels high",No Inhibition
same,Activity in NanoBit system,[3],no decrease in the luminescence signal
same,"Decrease in ability to prevent phosphorylation of eIF4E, PANC1 versus PC-3",[4]; PANC1 cells compared with PC-3,twofold
same,IC50,"[4]; PANC cells, 4E-BP1 protein levels low, normalised to GAPDH, read-out: pEIF4E SureFire (IC50)",6.2 ± 1.3 µM
same,IC50,[5],3 ± 1.7 µM
same,Effect on cell viability,PC-3 cells,no decrease in the luminescence signal or decrease in cell viability
CC(C)Nc1cc(-c2c[nH]c(C(=O)N[C@H](CO)c3cccc(Cl)c3)c2)c(Cl)cn1 [Ulixertinib],IC50,[1]; [8],4.7 ± 1.8 µM
CC(C)NC[C@@H](C(=O)N1CCN(c2ncnc3c2[C@H](C)C[C@H]3O)CC1)c1ccc(Cl)cc1 [Ipasertib],IC50,[1]; [8],0.17 ± 0.024 µM
CC(C)n1nc(-c2cc3cc(O)ccc3[nH]2)c2c(N)ncnc21 [PP242],Effect on cell viability (intracellular ATP),HEK293 cells,"neither Rapamycin, Torin nor PP242 affected the cells adversely"
CCC(=O)N1CCN(c2ccc(-n3c(=O)ccc4cnc5ccc(-c6cnc7ccccc7c6)cc5c43)cc2C(F)(F)F)CC1 [Torin],IC50,[1]; [8],0.06 ± 0.01 µM
same,IC50,"[2]; 4E-BP1 protein levels low, read-out: NanoBit eIF4E:4G (IC50)",0.13 ± 0.03 µM
same,IC50,"[3]; PC3 cells, 4E-BP1 protein levels high, read-out: NanoBit eIF4E:4G (IC50)",0.02 ± 0.01 µM
same,"pEIF4E SureFire (IC50, μM)","[4]; PANC cells, 4E-BP1 protein levels low, normalised to GAPDH",No Inhibition
same,IC50,"[5]; Homo sapiens, PC-3",0.1 ± 0.02 µM
same,Effect on cell viability (intracellular ATP),HEK293 cells,"neither Rapamycin, Torin nor PP242 affected the cells adversely"
O=C(O)C(Cc1ccccc1[N+](=O)[O-])=NNc1nc(-c2ccc(Cl)c(Cl)c2)cs1 (mixture of isomers) [4EGi-1],Extent of disruption of NanoBit signal / eIF4F complex,[1],neither achieved complete disruption of the signal
same,Effect on cell viability (intracellular ATP),HEK293 cells,only 4ER1Cat was observed to have an effect
same,Inhibition of full-length luciferase signal (counter-screen),[6],Non-specific inhibition of the luciferase signal
same,Kd,eIF4E-eIF4G interface,25 µM
Cn1c(=O)n(-c2ccc(C(C)(C)C#N)cc2)c2c3cc(-c4cnc5ccccc5c4)ccc3ncc21 [BEZ235],IC50,"[1]; HEK293, 4 h, read-out: apparent IC50, NanoBit eIF4E:eIF4G^604–646 signal",0.008 ± 0.0007 µM
same,Attenuation of potency by siRNA-mediated knockdown of 4EBP1,"[1]; HEK293, si4EBP1 versus siCtrl",substantially reduced
same,Extent of disruption of NanoBit signal / eIF4F complex,[1],achieved maximal inhibition of eIF4F activity
same,Decrease in potency on overexpression of GFP-MYC,[1]; HEK293 co-transfected with GFP-MYC versus GFP control,over an order of magnitude
same,Activity in NanoBit system,[2]; 4 h,dramatically attenuated
same,Effect of siRNA 4EBP1 knockdown on activity,"[3]; PC3 cells, si4EBP1 versus siCtrl",strongly attenuated
same,Activity in NanoBit system,[3],mid-nanomolar range
O=C(Nc1ccc2[nH]nc(-c3ccncc3)c2c1)[C@@H]1CCN(CC(=O)N2CCN(c3ccc(-c4ncccn4)cc3)CC2)C1 [SCH772984],IC50,[1]; [8],2.6 ± 1.8 µM
same,Effect on eIF4F disruption in combination with Ipasertib titration,"[1]; HEK293, SCH-772984 constant at 1 μM",additive effect
O=C(O)c1ccc(N2C(=O)/C(=C\c3ccc(-c4ccc([N+](=O)[O-])cc4)o3)C=C2c2ccccc2)cc1 [4E1RCat],IC50,[7],0.6 ± 0.15 µM
same,Extent of disruption of NanoBit signal / eIF4F complex,[1],neither achieved complete disruption of the signal
same,Effect on cell viability (intracellular ATP),HEK293 cells,observed to have an effect
same,Inhibition of full-length luciferase signal (counter-screen),[6],Non-specific inhibition of the luciferase signal
same,Kd,eIF4E-eIF4G interface,3.2 µM
